Two compounds from patent US20170305912A1, “PROCESS FOR THE PREPARATION OF 3-PHENYL/HETEROARYL-6-PHENOXY-8-ALKYLAMINO-IMIDAZO[1,2-B]PYRIDAZINE DERIVATIVES” (Bayer Pharma Aktiengesellschaft, priority 2014, published 2017) can be followed below.

This data set is described as follows: Particle size distribution in a dry dispersion (Sympatec Helos, method AM-PE 69). Format: physicochemical. The settings on record: cumulative undersize distribution by volume. The procedure: It turned out that the crystalline form of N-cyclopropyl-4-{6-(2,3-difluor-4-methoxyphenoxy)-8-[(3,3,3-trifluorpropyl)amino]imidazo[1,2-b]pyridazin-3-yl}-2-methylbenzamide prepared by the method of the present invention comprising steps (a) to (g), supra, is characterized by an advantageous particle size distribution. […] The particle size distribution was determined in a dry dispersion using the device “Sympatec Helos” and the method “AM-PE 69” (Pharmdoss).
Batch Nos. 1 to 5 were prepared by the method of the present invention comprising steps (a) to (c), supra. In case of Batch Nos. 2 to 5, the preparation method comprised the additional steps (d) to (g) (in case of Batch No. 1 steps (d) to (g) were not applied).
It can be clearly seen that the particles of Batch Nos. 2 to 5 are smaller than the particles of Batch No. 1 and the distribution is more uniform. In case of Batch Nos. 2 to 5, further micronization of the particles might not be necessary in order to increase the solubility or bioavailability of the final drug.

Where [1] appears, read: listed as 2, prepared with steps (d) to (g).
[2] abbreviates: prepared without steps (d) to (g).
Setting [3] is: listed as 4, prepared with steps (d) to (g).
Setting [4] is: listed as 5, prepared with steps (d) to (g).

As for “6,8-Bis(2,3-difluoro-4-methoxyphenoxy)-3-iodoimidazo[1,2-b]pyridazine [Example 1]”, under setting [1], the “X10 (particle size distribution)” value was found to be 1.4 μm, the “X50 (particle size distribution)” value was found to be 5.3 μm and the “X90 (particle size distribution)” value amounted to 36.1 μm. Under setting [2], the “X10 (particle size distribution)” value was found to be 2.0 μm, the “X50 (particle size distribution)” value was 18.2 μm and the “X90 (particle size distribution)” value amounted to 249.0 μm.
Take `COc1ccc(Oc2cc(Oc3ccc(OC)c(F)c3F)c3ncc(-c4ccc(C(=O)NC5CC5)c(C)c4)n3n2)c(F)c1F` [Example 3, 4-[6,8-bis(2,3-difluoro-4-methoxyphenoxy)imidazo[1,2-b]pyridazin-3-yl]-N-cyclopropyl-2-methylbenzamide]: under setting [3], the “X10 (particle size distribution)” value is reported as 1.3 μm, the “X50 (particle size distribution)” value turned out to be 4.2 μm and the “X90 (particle size distribution)” value stood at 13.2 μm. Besides, under setting [4], the “X10 (particle size distribution)” value was found to be 1.2 μm, the “X50 (particle size distribution)” value worked out at 4.0 μm and the “X90 (particle size distribution)” value is recorded as 12.4 μm. Also, under “prepared with steps (d) to (g)”, the “X10 (particle size distribution)” value came to 1.2 μm, the “X50 (particle size distribution)” value worked out at 4.1 μm and the “X90 (particle size distribution)” value is reported as 9.9 μm.
